For 30 compounds, IC50 results are on record in US8680108B2, “Substituted fused aryl and heteroaryl derivatives as PI3K inhibitors” (Incyte Corporation, priority 2009, dated 2014).

Structures can show the parent of a compound that is named as a salt. Where two headings read alike, the source gives them in different places.

In this test the target is T1, PI3Kδ (p110δ/p85α) (Homo sapiens, UniProt O00329).
T1 construct: purchased Millipore (Bedford, Mass.)
Put plainly: PI3Kδ scintillation proximity assay. Type of test: biochemical. The source says:
Materials: [γ-^33P]ATP (10 mCi/mL) was purchased from Perkin-Elmer (Waltham, Mass.). Lipid kinase substrate, D-myo-Phosphatidylinositol 4,5-bisphosphate (PtdIns(4,5)P2)D (+)-sn-1,2-di-O-octanoylglyceryl, 3-O-phospho linked (PIP2), CAS 204858-53-7, was purchased from Echelon Biosciences (Salt Lake City, Utah). PI3Kδ (p110δ/p85α) was purchased from Millipore (Bedford, Mass.). ATP, MgCl2, DTT, EDTA, MOPS and CHAPS were purchased from Sigma-Aldrich (St. Louis, Mo.). Wheat Germ Agglutinin (WGA) YSi SPA Scintillation Beads was purchased from GE healthcare life sciences (Piscataway, N.J.).
Assay: The kinase reaction was conducted in polystyrene 384-well matrix white plate from Thermo Fisher Scientific in a final volume of 25 μL. Inhibitors were first diluted serially in DMSO and added to the plate wells before the addition of other reaction components. The final concentration of DMSO in the assay was 0.5%. The PI3K assays were carried out at room temperature in 20 mM MOPS, pH 6.7, 10 mM MgCl2, 5 mM DTT and CHAPS 0.03%. Reactions were initiated by the addition of ATP, the final reaction mixture consisted of 20 μM PIP2, 20 μM ATP, 0.2 μCi [γ-^33P] ATP, 4 nM PI3Kδ. Reactions were incubated for 210 minutes and terminated by the addition of 40 μL SPA beads suspended in quench buffer: 150 mM potassium phosphate pH 8.0, 20% glycerol. 25 mM EDTA, 400 μM ATP. The final concentration of SPA beads is 1.0 mg/mL. After the plate sealing, plates were shaken overnight at room temperature and centrifuged at 1800 rpm for 10 minutes, the radioactivity of the product was determined by scintillation counting on Topcount (Perkin-Elmer). IC50 determination was performed by fitting the curve of percent control activity versus the log of the inhibitor concentration using the GraphPad Prism® 3.0 software.

T1 sequence (O00329 whole entry): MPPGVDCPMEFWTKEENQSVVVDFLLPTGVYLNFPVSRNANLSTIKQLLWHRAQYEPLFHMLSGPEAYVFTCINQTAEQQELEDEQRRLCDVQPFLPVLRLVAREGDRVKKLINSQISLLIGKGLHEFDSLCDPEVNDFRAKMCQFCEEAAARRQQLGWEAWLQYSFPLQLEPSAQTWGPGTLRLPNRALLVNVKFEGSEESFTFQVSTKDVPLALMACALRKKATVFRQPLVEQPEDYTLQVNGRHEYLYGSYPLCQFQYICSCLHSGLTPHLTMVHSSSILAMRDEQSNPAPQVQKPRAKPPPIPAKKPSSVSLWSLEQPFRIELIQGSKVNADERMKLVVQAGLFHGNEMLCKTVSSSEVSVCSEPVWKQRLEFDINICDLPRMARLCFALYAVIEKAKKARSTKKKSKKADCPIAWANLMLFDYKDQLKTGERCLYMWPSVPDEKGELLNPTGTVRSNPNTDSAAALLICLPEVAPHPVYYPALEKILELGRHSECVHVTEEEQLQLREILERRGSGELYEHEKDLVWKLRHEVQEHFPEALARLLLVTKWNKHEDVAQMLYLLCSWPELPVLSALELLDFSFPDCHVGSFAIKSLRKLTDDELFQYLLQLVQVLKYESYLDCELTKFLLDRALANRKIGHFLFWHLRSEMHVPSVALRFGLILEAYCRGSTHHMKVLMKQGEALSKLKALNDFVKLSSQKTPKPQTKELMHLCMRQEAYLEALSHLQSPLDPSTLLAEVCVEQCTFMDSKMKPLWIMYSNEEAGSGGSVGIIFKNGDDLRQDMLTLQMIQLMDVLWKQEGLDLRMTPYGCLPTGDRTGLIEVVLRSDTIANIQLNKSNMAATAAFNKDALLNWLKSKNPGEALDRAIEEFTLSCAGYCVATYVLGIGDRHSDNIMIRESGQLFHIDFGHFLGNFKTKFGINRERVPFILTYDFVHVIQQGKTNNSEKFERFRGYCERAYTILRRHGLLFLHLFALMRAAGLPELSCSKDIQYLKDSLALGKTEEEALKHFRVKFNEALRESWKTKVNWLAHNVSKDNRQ
T1 sequence (P27986 whole entry partner): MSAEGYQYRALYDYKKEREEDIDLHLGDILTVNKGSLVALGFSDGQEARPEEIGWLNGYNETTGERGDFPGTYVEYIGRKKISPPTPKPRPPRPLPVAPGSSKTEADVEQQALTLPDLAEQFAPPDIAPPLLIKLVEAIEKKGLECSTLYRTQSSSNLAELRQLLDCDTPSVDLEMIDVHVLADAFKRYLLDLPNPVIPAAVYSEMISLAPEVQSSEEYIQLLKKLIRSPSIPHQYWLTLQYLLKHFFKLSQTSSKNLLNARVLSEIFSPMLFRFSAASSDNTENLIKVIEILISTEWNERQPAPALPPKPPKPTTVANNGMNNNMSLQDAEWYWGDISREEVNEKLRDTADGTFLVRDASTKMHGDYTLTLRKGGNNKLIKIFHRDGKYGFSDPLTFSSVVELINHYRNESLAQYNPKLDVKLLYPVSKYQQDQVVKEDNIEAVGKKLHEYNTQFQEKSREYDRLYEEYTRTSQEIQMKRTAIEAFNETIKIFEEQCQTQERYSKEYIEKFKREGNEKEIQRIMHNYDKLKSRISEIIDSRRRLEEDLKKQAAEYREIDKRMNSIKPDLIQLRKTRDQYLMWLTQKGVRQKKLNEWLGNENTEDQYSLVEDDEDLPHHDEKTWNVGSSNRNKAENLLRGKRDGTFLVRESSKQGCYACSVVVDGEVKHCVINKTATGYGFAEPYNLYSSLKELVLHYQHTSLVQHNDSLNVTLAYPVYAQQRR

Take `CC(=O)NC1CCN(c2c(C(C)Nc3ncnc4[nH]cnc34)cc(Cl)c3cccnc23)CC1` (centres unmarked) [Example 82, N-(1-{5-Chloro-7-[1-(9H-purin-6-ylamino)ethyl]quinolin-8-yl}piperidin-4-yl)acetamide bis(trifluoroacetate)]: the IC50 was less than 0.05 µM. For the compound `CC(Nc1ncnc2[nH]cnc12)c1ccc2cccnc2c1-c1ccccc1F` (centres unmarked) [Example 7, N-{1-[8-(2-fluorophenyl)quinolin-7-yl]ethyl}-9H-purin-6-amine bis-trifluoroacetate], the IC50 was more than 1 µM (separated isomer, 1st peak) and 0.5 to 1 µM (separated isomer, 2nd peak). With `Cc1cc(C(=O)N2CCN(c3c(C(C)Nc4ncnc5[nH]cnc45)cc(Cl)c4cccnc34)CC2)no1` (centres unmarked) [Example 99, N-[1-(5-Chloro-8-{4-[(5-methylisoxazol-3-yl)carbonyl]piperazin-1-yl}quinolin-7-yl)ethyl]-9H-purin-6-amine bis(trifluoroacetate)], the IC50 was less than 0.05 µM. Compound `CC(Nc1ncnc2[nH]cnc12)c1cc(Cl)c2cccnc2c1N1CCC(C#N)C1` (mixture of isomers) [Example 60, 1-{5-Chloro-7-[1-(9H-purin-6-ylamino)ethyl]quinolin-8-yl}pyrrolidine-3-carbonitrile bis(trifluoroacetate)] came in with an IC50 of 0.1 to 0.25 µM. `CC(Nc1ncnc2[nH]cnc12)c1cc(Cl)c2cn[nH]c2c1-c1cccc(F)c1` (centres unmarked) [Example 105, N-{1-[4-Chloro-7-(3-fluorophenyl)-1H-indazol-6-yl]ethyl}-9H-purin-6-amine]: the IC50 was less than 0.05 µM. The same measure, in the same setting: as for `CC(Nc1ncnc2[nH]cnc12)c1cc(Cl)c2cccnc2c1N1CCN(C(=O)c2ccccc2)CC1` (centres unmarked) [Example 89, N-(1-[8-(4-Benzoylpiperazin-1-yl)-5-chloroquinolin-7-yl]ethyl}-9H-purin-6-amine bis(trifluoroacetate)], the figure is 0.05 to 0.1 µM. Same read-out and setting: to `CC(Nc1ncnc2[nH]cnc12)c1cc(Cl)c2cn[nH]c2c1-c1cc(F)cc(F)c1` (centres unmarked) [Example 106, N-{1-[4-Chloro-7-(3,5-difluorophenyl)-1H-indazol-6-yl]ethyl)-9H-purin-6-amine] belongs less than 0.05 µM; to `CC(Nc1ncnc2[nH]cnc12)c1cc(Cl)c2cccnc2c1N1CCN(C(=O)c2ccccn2)CC1` (centres unmarked) [Example 95, N-(1-{5-Chloro-8-[4-(pyridin-2-ylcarbonyl)piperazin-1-yl]quinolin-7-yl}ethyl)-9H-purin-6-amine tris(trifluoroacetate)], less than 0.05 µM. On the same count and under the same terms, as for `CC(Nc1ncnc2[nH]cnc12)c1ccc2cccnc2c1-c1cccc(F)c1` (centres unmarked) [Example 8, N-{1-[8-(3-fluorophenyl)quinolin-7-yl]ethyl}-9H-purin-6-amine bis-trifluoroacetate], the figure is 0.25 to 0.5 µM. With `CC(Nc1ncnc2[nH]cnc12)c1nc(C#N)c2ccccc2c1-c1cccc(F)c1` (centres unmarked) [Example 54, 4-(3-fluorophenyl)-3-[1-(9H-purin-6-ylamino)ethyl]isoquinoline-1-carbonitrile], the IC50 fell in the range of 0.05 to 0.1 µM. Still for that read-out and setting: to `COC(=O)NC1CCN(c2c(C(C)Nc3ncnc4[nH]cnc34)cc(Cl)c3cccnc23)CC1` (centres unmarked) [Example 83, Methyl(1-{5-Chloro-7-[1-(9H-purin-6-ylamino)ethyl]quinolin-8-yl}piperidin-4-yl)carbamate bis(trifluoroacetate)] belongs less than 0.05 µM; to `CC(Nc1ncnc2[nH]cnc12)c1cc(Cl)c2cccnc2c1-c1cccc(F)c1` (centres unmarked) [Example 15, N-{1-[5-chloro-8-(3-fluorophenyl)quinolin-7-yl]ethyl}-9H-purin-6-amine bis-trifluoroacetate], less than 0.05 µM. On the same count and under the same terms, as for `CNC(=O)c1cc(F)cc(-c2c(C(C)Nc3ncnc4[nH]cnc34)cc(Cl)c3ccnnc23)c1` (centres unmarked) [Example 40, 3-{5-Chloro-7-[1-(9H-purin-6-ylamino)ethyl]cinnolin-8-yl}-5-fluoro-N-methylbenzamide], the figure is more than 1 µM. Same read-out and setting: to `CC(Nc1ncnc2[nH]cnc12)c1cc(Cl)c2cccnc2c1N1CCN(C(=O)c2cccc(F)c2)CC1` (centres unmarked) [Example 92, N-(1-{5-Chloro-8-[4-(3-fluorobenzoyl)piperazin-1-yl]quinolin-7-yl}ethyl)-9H-purin-6-amine bis(trifluoroacetate)] belongs 0.1 to 0.25 µM. Compound `CCc1cc(C(C)Nc2ncnc3[nH]cnc23)c(-c2cccc(F)c2)c2ncccc12` (centres unmarked) [Example 51, N-{1-[5-Ethyl-8-(3-fluorophenyl)quinolin-7-yl]ethyl}-9H-purin-6-amine bis(trifluoroacetate)] came in with an IC50 of 0.05 to 0.1 µM. In the case of `CC(Nc1ncnc2[nH]cnc12)c1cc(Cl)c2ccnnc2c1-c1cncc(F)c1` (single isomer, unassigned) [Example 34, N-{1-[5-chloro-8-(5-fluoropyridin-3-yl)cinnolin-7-yl]ethyl}-9H-purin-6-amine trifluoroacetate], the IC50 was in the range of 0.05 to 0.1 µM. Compound `COC1CCN(c2c(C(C)Nc3ncnc4[nH]cnc34)cc(Cl)c3cccnc23)CC1` (centres unmarked) [Example 71, N-{1-[5-Chloro-8-(4-methoxypiperidin-1-yl)quinolin-7-yl]ethyl}-9H-purin-6-amine bis(trifluoroacetate)] yielded an IC50 of 0.05 to 0.1 µM. Same read-out and setting: as for `CC(Nc1ncnc2[nH]cnc12)c1cc(F)c2cccnc2c1N1CCN(C2CCC2)CC1` (centres unmarked) [Example 55, N-{1-[8-(4-Cyclobutylpiperazin-1yl)-5-fluoroquinolin-7-yl]ethyl}-9H-purin-6-amine], the figure is less than 0.05 µM. Same read-out and setting: as for `Cc1cc(C(C)Nc2ncnc3[nH]cnc23)c(-c2cc(F)cc(F)c2)c2nnccc12` (single isomer, unassigned) [Example 38, N-{1-[8-(3,5-difluorophenyl)-5-methylcinnolin-7-yl]ethyl}-9H-purin-6-amine], the figure is less than 0.05 µM; as for `CC(Nc1ncnc2[nH]cnc12)c1cc(Cl)c2ccnnc2c1-c1cncc(F)c1` (single isomer, unassigned) [Example 35, N-{1-[5-chloro-8-(5-fluoropyridin-3-yl)cinnolin-7-yl]ethyl}-9H-purin-6-amine trifluoroacetate], more than 1 µM; as for `CC(Nc1ncnc2[nH]cnc12)c1cc(Cl)c2cccnc2c1N1CCN(CCO)CC1` (centres unmarked) [Example 58, 2-(4-{5-Chloro-7-[1-(9H-purin-6-ylamino)ethyl]quinolin-8-yf}piperazin-1-yl)ethanol tris(trifluoroacetate)], less than 0.05 µM. Same read-out and setting: to `CC(Nc1ncnc2[nH]cnc12)c1cc(Cl)c2cccnc2c1N1CCN(C(=O)c2cnccn2)CC1` (centres unmarked) [Example 97, N-(1-{5-Chloro-8-[4-(pyrazin-2-ylcarbonyl)piperazin-1-yl]quinolin-7-yl}ethyl)-9H-purin-6-amine bis(trifluoroacetate)] belongs less than 0.05 µM. Regarding `CC(Nc1ncnc2[nH]cnc12)c1cc(Cl)c2cccnc2c1N1CCC(c2ccccc2)C1` (centres unmarked) [Example 76, N-{1-[5-Chloro-8-(3-phenylpyrrolidin-1-yl)quinolin-7-yl]ethyl}-9H-purin-6-amine tris(trifluoroacetate)], the IC50 (separated isomer, 1st peak) fell in the range of 0.25 to 0.5 µM and the IC50 (separated isomer, 2nd peak) is 0.25 to 0.5 µM. Regarding `CC(Nc1nc(N)nc2[nH]cnc12)c1ccc2ccccc2c1-c1cncc(F)c1` (centres unmarked) [Example 3, N(6)-{1-[1-(5-fluoropyridin-3-yl)-2-naphthyl]ethyl}-9H-purine-2,6-diamine bis-trifluoroacetate], the IC50 was less than 0.05 µM. On the same count and under the same terms, to `CC(Nc1ncnc2[nH]cnc12)c1cc(Cl)c2cccnc2c1N1CCN(C2CCCCC2)CC1` (centres unmarked) [Example 65, N-{1-[5-Chloro-8-(4-cyclohexylpiperazin-1-yl)quinolin-7-yl]ethyl}-9H-purin-6-amine tris(trifluoroacetate)] belongs 0.05 to 0.1 µM; to `CC(Nc1ncnc2[nH]cnc12)c1cc(Cl)c2ccnnc2c1-c1cc(F)cc(F)c1` (single isomer, unassigned) [Example 23, N-{1-[5-Chloro-8-(3,5-difluorophenyl)cinnolin-7-yl]ethyl}-9H-purin-6-amine], less than 0.05 µM; to `CC(Nc1ncnc2[nH]cnc12)c1cc(Cl)c2ccnnc2c1-c1ccccc1F` (single isomer, unassigned) [Example 28, N-{1-[5-Chloro-8-(2-fluorophenyl)cinnolin-7-yl]ethyl}-9H-purin-6-amine], less than 0.05 µM. Same read-out and setting: to `CC(Nc1ncnc2[nH]cnc12)c1cc(Cl)c2cccnc2c1N1CCN(C(=O)c2ccccc2F)CC1` (centres unmarked) [Example 93, N-(1-{5-Chloro-8-[4-(2-fluorobenzoyl)piperazin-1-yl]quinolin-7-yl}ethyl)-9H-purin-6-amine bis(trifluoroacetate)] belongs 0.25 to 0.5 µM; to `CC(Nc1ncnc2[nH]cnc12)c1ccc2ccccc2c1-c1cccc(F)c1` (centres unmarked) [Example 1, N-{1-[1-(3-fluorophenyl)-2-naphthyl]ethyl}-9H-purin-6-amine trifluoroacetate], 0.1 to 0.25 µM. In the case of `CC(Nc1ncnc2[nH]cnc12)c1cc(C#N)c2cccnc2c1-c1cccc(F)c1` (centres unmarked) [Example 52, 8-(3-fluorophenyl)-7-[1-(9H-purin-6-ylamino)ethyl]quinoline-5-carbonitrile], the IC50 lay within 0.05 to 0.1 µM.
